Entries after “also recorded” stand apart in the source; their conditions may differ.
Key:
Format in all cases: cell-based, human
CDX2-induced HEOs = test: Notch inhibition in CDX2-induced HEOs (qPCR, IF); conditions: d58 HEOs
Method: Human embryonic stem cell (hESC) line H1 (WA01, person) were purchased from WiCell. iPSC line iPS106 was generated in-house and approved by the institutional review board at CCHMC. All hPSCs were maintained on feeder-free cultures: cells were plated on hESC-qualified Matrigel (BD Biosciences, San Jose, Calif.) and maintained at 37° C. with 5% CO2 with daily replacement of mTeSR1 media (STEMCELL Technologies, Vancouver, Canada); cells were passaged routinely every 4 days using Dispase (STEMCELL Technologies). The HA-tagged SOX2, CDX2, or FANCA dox-inducible lines were generated by first cloning the human SOX2 ORF, CDX2 ORF, or FANCA ORF into pINDUCER20 (respectively) (Addgene #44012, Meerbrey et al., 2011). Next, lentivirus was generated with help of the Viral Vector Core Facility at CCHMC. The lentivirus for HA-SOX2 and CDX2 were transduced into hESCs with 2 μL of virus; these lines were maintained on selection with mTeSR1 and G418 (500 μg mL-1, ThermoFisher Scientific). The lentivirus for FANCA were transduced prior to the iPS106 line generation, as FANCA is required for maintenance of hPSC properties. The hESC H1 line (and transduced derivatives) was used in all experiments excluding Fanconi Anemia modeling in HEOs, which used the iPS106 line.
(§1) For the generation of anterior foregut spheroids, from definitive endoderm, cells were treated with Wnt3a (500 ng mL-1, R&D systems) for 2 days, and FGF4 (500 ng mL-1, R&D systems), Noggin (200 ng mL-1) for 3 days in RPMI 1640 with 2% dFBS. Three-dimensional culture and differentiation of anterior foregut spheroids into human esophageal organoids were obtained as described above.
Tissue cultures were fixed with 4% paraformaldehyde at either room temperature for 15 minutes (for monolayer cultures), or 4° C. for overnight (for organoids). […]
Monolayer cultures and organoids were harvested in total, including the plated/embedding matrigel. […] For qRT-PCR, Applicant used Quantitect SYBR-Green master mix (Qiagen) and ran the reaction on a QuantStudio 6 machine (ThermoFisher Scientific).

foregut spheroids = test: Anterior-posterior patterning of foregut spheroids (qPCR, IF); conditions: for regional identity of foregut spheroids (HNF1β, SOX2, PROX1, HNF6): shorter duration of treatment following DE formation, day 6 spheroids
Method: Confluent hPSC cultures were treated with Acutase (STEMCELL Technologies) to resuspend as single cells in mTeSR1 and Y-27632 (10 μM, Tocris) and plated on Matrigel. On the following day, differentiation into definitive endoderm was carried out as previously described (McCracken et al., 2014). Briefly, cells were treated with Activin A (100 ng mL-1, R&D systems, Minneapolis, Minn.) and BMP4 (50 ng mL-1, R&D systems) on the first day in RPMI 1640 media (Life Technologies). Cells in the following two days were treated with only Activin A (100 ng mL-1) in RPMI 1640 with increasing concentrations 0.2% and 2% of HyClone defined fetal bovine serum (dFBS, GE Healthcare Life Sciences).
For anterior foregut monolayer cultures, cells were treated for 3 days in Noggin (200 ng mL-1) in RPMI 1640 with 2% dFBS, with all-trans retinoic acid (2 μM, Sigma, St. Louis, Mo.) the 3rd day.
(§2) Alternately, for the generation of anterior foregut spheroids, from definitive endoderm, cells were treated with FGF4 (500 ng mL-1, R&D systems), Noggin (200 ng mL-1) for 3 days in RPMI 1640 with 2% dFBS. Additional factors were tested during this time (described in results), such as CHIR99021 (“chiron” or “chr”, 2 μM, Tocris), Wnt3a (500 ng mL-1, R&D systems), SB431542 (10 μM, Tocris), DEAB (10 μM, Sigma), and retinoic acid (2 μM).
Tissue cultures were fixed with 4% paraformaldehyde at either room temperature for 15 minutes, 4° C. for 2 hours for cryosectioning, or 4° C. overnight for paraffin embedding/sectioning and mouse embryos. For paraffin embedding and sectioning, following fixation, tissues were dehydrated and embedded into paraffin blocks. Afterwards, paraffin-sectioned slides were deparaffinized and subjected to antigen retrieval in 10 mM sodium citrate for 30 minutes prior to staining. For cryosectioning, tissues were thoroughly washed in PBS, left in 30% sucrose overnight, embedded in OCT compound (VWR), and sectioned at a thickness of 8 μm. Commonly, slides were then permeabilized with 0.5% TritonX-100 in PBS for 10 minutes, blocked in 5% normal donkey serum (Jackson ImmunoResearch) for 1 hour, and incubated in primary antibody overnight at 4° C. On the next day, slides were thoroughly washed in PBS, incubated in secondary antibody (at 1:500) for 1 hour, and then thoroughly washed again. For EdU visualization, Applicant used the Click-iT EdU Alexa Fluor 488 Imaging Kit (Invitrogen) prior to blocking. For wholemount immunofluorescence staining, embryos were placed in 100% methanol immediately after fixation. Embryos were then permeabilized with Dent's Bleach (4:1:1 MeOH:DMSO:30% H2O2) for 2 hours at room temperature, rehydrated with methanol washes, and blocked for several hours at room temperature to overnight at 4° C. Primary antibodies were applied and embryos incubated overnight at 4° C. Then, embryos were thoroughly washed in 0.1% TritonX-100 in PBS before incubating in secondary antibodies overnight at 4° C. Finally, embryos were washed again, dehydrated with methanol washes, and cleared with Murray's Clear (2:1 benzyl benzoate:benzyl alcohol, Sigma) at least 15 minutes prior to imaging. For a list of antibodies and dilutions used, please see Table 2.
Spheroid and organoids were harvested in total, including the embedding matrigel. Collagen plugs from the organotypic raft cultures were first removed from the transwell on day 14, and subsequently harvested in total. Total RNA was isolated using the NucleoSpin RNA kit (Macherey-Nagel) and reverse transcribed to cDNA using the SuperScript VILO cDNA synthesis kit (ThermoFisher Scientific). For qRT-PCR, Applicant used Quantitect SYBR-Green master mix (Qiagen) and ran the reaction on a QuantStudio 6 machine (ThermoFisher Scientific). For a list of primers used, please see Table 1.

HEOs [1] = test: IL-13 treatment of HEOs, eosinophilic esophagitis model (qPCR, Western blot, IF, EdU, H&E, electron microscopy)
Method: (§3) Anterior foregut spheroids were transferred into 50 μL droplets of Matrigel, and are cultured for 3-58 days in the base (“Gut”) media of Advanced DMEM/F12 (ThermoFisher Scientific) supplemented with B27 supplement (1×, ThermoFisher Scientific), N2 supplement (1×, ThermoFisher Scientific), HEPES (13 mM, ThermoFisher Scientific), L-Glutamine (2 mM ThermoFisher Scientific), penicillin/streptomycin (1×, ThermoFisher Scientific), and EGF (100 ng mL^−1, R&D systems). In addition to this base media, the first three days were supplemented with Noggin (200 ng mL^−1), FGF10 (50 ng mL^−1), and CultureOne supplement (1×, ThermoFisher Scientific). FGF10 and CultureOne supplementation is continued until the end of the first week in three-dimensional culture. Media was replaced every 3-4 days. For EdU labeling, media was supplemented with EdU (10 μM Invitrogen) for a defined period of time, and was removed by washing with sterile PBS twice before replacing with media without EdU.
as §1
(§4) Tissue cultures were fixed with 4% paraformaldehyde at either room temperature for 15 minutes (for monolayer cultures), or 4° C. for overnight (for organoids). Tissues were thoroughly washed in PBS and stained for monolayer cultures, while organoids were thoroughly washed and then left in 30% sucrose overnight, embedded in OCT compound (VWR), and sectioned at a thickness of 8 μm. Slides were then permeabilized with 0.5% TritonX-100 in PBS for 10 minutes, blocked in 5% normal donkey serum (Jackson ImmunoResearch) for 1 hour minimum, and incubated in primary antibody overnight at 4° C. On the next day, slides were thoroughly washed in PBS, incubated in secondary antibody (at 1:500) for 1 hour, and then thoroughly washed again. For EdU visualization, the Click-iT EdU Alexa Fluor 488 Imaging Kit (Invitrogen) was used prior to blocking.
(§5) Monolayer cultures and organoids were harvested in total, including the plated/embedding matrigel. Total RNA was isolated using the NucleoSpin RNA kit (Macherey-Nagel) and reverse transcribed to cDNA using the SuperScript VILO cDNA synthesis kit (ThermoFisher Scientific). For qRT-PCR, Applicant used Quantitect SYBR-Green master mix (Qiagen) and ran the reaction on a QuantStudio 6 machine (ThermoFisher Scientific).

AFG spheroids = test: Dorsal-ventral patterning / respiratory induction of anterior foregut spheroids (qPCR, IF); conditions: day 6 AFG spheroids treated 3 days; analysed day 9
Method: as §2
Anterior foregut spheroids were transferred into 50 μL droplets of Matrigel, and are cultured for 3-58 days in the base (“Gut”) media of Advanced DMEM/F12 (ThermoFisher Scientific) supplemented with B27 supplement (1×, ThermoFisher Scientific), N2 supplement (1×, ThermoFisher Scientific), HEPES (13 mM, ThermoFisher Scientific), L-Glutamine (2 mM ThermoFisher Scientific), penicillin/streptomycin (1×, ThermoFisher Scientific), and EGF (100 ng mL^−1, R&D systems). In addition to this base media, the first three days were supplemented with Noggin (200 ng mL^−1), FGF10 (50 ng mL^−1), and CultureOne supplement (1×, ThermoFisher Scientific). […]
Spheroid and organoids were harvested in total, including the embedding matrigel. […] For qRT-PCR, Applicant used Quantitect SYBR-Green master mix (Qiagen) and ran the reaction on a QuantStudio 6 machine (ThermoFisher Scientific). […]

HEOs [2] = test: BMP activation in late stage HEOs (IF, EdU, qPCR)
Method: as §3, §1, §4, §5

[3] = 6-week-old HEOs, BMP4 100 ng/mL for additional 2 weeks

## C[C@H](NC(=O)Cc1cc(F)cc(F)c1)C(=O)N[C@H](C(=O)OC(C)(C)C)c1ccccc1 [DAPT]
CDX2-induced HEOs; CDX2-induction plus DAPT
  KRT5 expression: further downregulated
  KRT13 expression, effect added to CDX2-induction: does not appear to be a synergistic effect
CDX2-induced HEOs; qPCR
  HESS (Notch target gene) expression: downregulated

## CCN(CC)c1ccc(C=O)cc1 [DEAB]
Foregut spheroids; cultures containing DEAB (blocking RA synthesis)
  TP63 and pharyngeal marker expression of spheroids: spheroids with minimal TP63 expression and increased levels of the pharyngeal markers PAX9 and OTX2

## CC1=C(/C=C/C(C)=C/C=C/C(C)=C/C(=O)O)C(C)(C)CCC1 [RA, all-trans retinoic acid]
Foregut spheroids; 1 day of RA
  marker expression after RA treatment: promotes expression of TP63 and KRT4 and not posterior foregut markers GATA4 and PDX1; also recorded: spheroids that express TP63
Foregut spheroids; RA for 4 days
  marker expression after RA treatment: express posterior foregut markers, GATA4 and PDX1

## Cc1c[nH]c(-c2cnc(NCCNc3ccc(C#N)cn3)nc2-c2ccc(Cl)cc2Cl)n1 [chiron, CHIR99021]
Foregut spheroids; one day of chiron treatment, qPCR
  gene expression profile of spheroids, chiron versus Wnt3a: same gene expression profile as those generated with 2 days of Wnt3a
Foregut spheroids
  regional identity of foregut spheroids (HNF1β, SOX2, PROX1, HNF6): formation of anterior foregut (AFG) spheroids expressing HNF1β and SOX2, with low levels of posterior foregut markers PROX1 and HNF6

## IL-13: a cytokine known to enact broad changes in the esophagus
HEOs [1]; IL-13 100 ng/mL for 2 weeks
  epithelial morphology by electron microscopy: increased spaces between individual cells and a decrease in cell-cell contacts
HEOs [1]; IL-13 100 ng/mL for 2 weeks, EdU 2 days
  EdU incorporation in the basal-most p63+ cells: increased
HEOs [1]; IL-13 100 ng/mL for 2 weeks, qPCR
  BMP antagonists NOG and FST expression: did not upregulate
HEOs [1]; IL-13 100 ng/mL for 2 weeks, IF, H&E
  epithelial morphology: dilated intercellular spaces suprabasally
HEOs [1]; IL-13 100 ng/mL, 1-2 weeks
  late differentiation and structural proteins: downregulated late differentiation and structural proteins DSG1, IVL, and CRNN
HEOs [1]; IL-13 alone
  PTCH1 expression (read-out for hedgehog signaling): upregulates
HEOs [1]; day 62 HEOs, qPCR
  BMP target gene ID3 expression: mild increase
HEOs [1]; extended treatment (100 ng/mL, 1 week), Western blot
  IL-13 target gene response: maintained upregulation of some target genes SERPINB13 and CDH26
HEOs [1]; short duration (2 days prior to harvest), day 62 HEOs, qPCR
  IL-13 target gene response: validated the response of target genes CCL26, CDH26, CAPN14, and SERPINB4

B1: Wnt3a: recombinant human Wnt3a, Wnt ligand (protein, UniProt P56704 19-352, looked up)
Protein Wnt-3a: SYPIWWSLAVGPQYSSLGSQPILCASIPGLVPKQLRFCRNYVEIMPSVAEGIKIGIQECQHQFRGRRWNCTTVHDSLAIFGPVLDKATRESAFVHAIASAGVAFAVTRSCAEGTAAICGCSSRHQGSPGKGWKWGGCSEDIEFGGMVSREFADARENRPDARSAMNRHNNEAGRQAIASHMHLKCKCHGLSGSCEVKTCWWSQPDFRAIGDFLKDKYDSASEMVVEKHRESRGWVETLRPRYTYFKVPTERDLVYYEASPNFCEPNPETGSFGTRDRTCNVSSHGIDGCDLLCCGRGHNARAERRREKCRCVFHWCCYVSCQECTRVYDVHTCK
Foregut spheroids
  regional identity of foregut spheroids (HNF1β, SOX2, PROX1, HNF6): formation of anterior foregut (AFG) spheroids expressing HNF1β and SOX2, with low levels of posterior foregut markers PROX1 and HNF6

B2: Noggin: recombinant human Noggin, used to inhibit BMP signaling (protein, UniProt Q13253 28-232, looked up)
Noggin: QHYLHIRPAPSDNLPLVDLIEHPDPIFDPKEKDLNETLLRSLLGGHYDPGFMATSPPEDRPGGGGGAAGGAEDLAELDQLLRQRPSGAMPSEIKGLEFSEGLAQGKKQRLSKKLRRKLQMWLWSQTFCPVLYAWNDLGSRFWPRYVKVGSCFSKRSCSVPEGMVCKPSKSVHLTVLRWRCQRRGGQRCGWIPIQYPIISECKCSC
AFG spheroids
  dorsal-ventral marker expression (NKX2-1, SOX2, MNX1, KRT4, TP63): dorsalized spheroids, as marked by elevated levels of SOX2, MNX1, KRT4, and TP63

B3: BMP4: recombinant human BMP4 (protein, UniProt P12644 293-408, looked up)
Bone morphogenetic protein 4: SPKHHSQRARKKNKNCRRHSLYVDFSDVGWNDWIVAPPGYQAFYCHGDCPFPLADHLNSTNHAIVQTLVNSVNSSIPKACCVPTELSAISMLYLDEYDKVVLKNYQEMVVEGCGCR
HEOs [2]; [3]
  state of remaining basal cells (pSMAD1/5/9, p63, SOX2): have active BMP signaling (pSMAD1/5/9+) and express p63, but loss expression of SOX2
  stratification and differentiation markers: loss of stratification and expression of differentiation markers
HEOs [2]; BMP4 treated HEOs, day 62
  EdU incorporation: minimal EdU incorporation
HEOs [2]; BMP4 treated HEOs, data not shown
  CDX2 expression: unchanged

— patent US12297457B2, “Esophageal tissue and/or organoid compositions and methods of making same” (Children's Hospital Medical Center, priority 2017, dated 2025)
